Where two headings read alike, the source gives them in different places. *1 amine or outer side, *2 acyl side, *3 side chain or, on linkers, in order; H or OH if unused. Where a SMILES comes first, the peptide text is derived from it. Bridges are numbered along the chain shown (N, C = ends). [ ]: non-standard residue; d: D form. The star is where a group is joined. hPhe(3,5-F2-4-CF3) = N[C@@H](CCc1cc(F)c(C(F)(F)F)c(F)c1)C(=O)O; hPhe(3-Cl-4-CF3) = N[C@@H](CCc1ccc(C(F)(F)F)c(Cl)c1)C(=O)O; NPrPhe(4-CF3) = CCCN[C@@H](Cc1ccc(C(F)(F)F)cc1)C(=O)O; NEtPhe(4-CF3) = CCN[C@@H](Cc1ccc(C(F)(F)F)cc1)C(=O)O; X9 = CCCN([C@@H](Cc1ccc(F)cc1)C(=O)[*:2])[*:1]; NMeGly(cPent) = CN[C@H](C(=O)O)C1CCCC1; Hyp = O=C(O)[C@@H]1C[C@@H](O)CN1; NMeD = CN[C@@H](CC(=O)O)C(=O)O; NMeL = CN[C@@H](CC(C)C)C(=O)O; αMeS = C[C@](N)(CO)C(=O)O; Morpholide = C1CN(*)CCO1; NMeA = CN[C@@H](C)C(=O)O; Ac5c = NC1(C(=O)O)CCCC1; Aze = O=C(O)[C@@H]1CCN1; Ac4c = NC1(C(=O)O)CCC1; Aib = CC(C)(N)C(=O)O; Sar = CNCC(=O)O; Allyl = C=CC*
How the values were obtained:
[1] = molecular target: GDP-bound KRAS wild-type protein (Homo sapiens, UniProt P01116); test: Binding to KRAS by surface plasmon resonance (SPR), Single Cycle Kinetics; settings: GDP-bound KRAS wild-type protein, read-out: KRAS KD
[2] = molecular target: GDP-bound NRAS wild-type protein (Homo sapiens, UniProt P01111); test: Binding to NRAS by surface plasmon resonance (SPR), Single Cycle Kinetics; settings: SPR, GDP-bound NRAS wild-type protein vs GDP-bound KRAS wild-type protein
[3] = molecular target: GDP-bound HRAS wild-type protein (Homo sapiens, UniProt P01112); test: Binding to HRAS by surface plasmon resonance (SPR), Single Cycle Kinetics; settings: SPR, GDP-bound HRAS wild-type protein vs GDP-bound KRAS wild-type protein
[4] = SPR Single Cycle Kinetics, 1:1 binding model

GDP-bound NRAS wild-type protein, sequence (P01111 whole entry): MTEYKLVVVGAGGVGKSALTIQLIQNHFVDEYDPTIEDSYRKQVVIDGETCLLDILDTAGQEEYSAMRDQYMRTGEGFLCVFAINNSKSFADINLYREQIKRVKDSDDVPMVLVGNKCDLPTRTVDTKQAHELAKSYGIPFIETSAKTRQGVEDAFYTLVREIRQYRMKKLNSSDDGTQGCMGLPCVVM
GDP-bound KRAS wild-type protein, sequence (P01116 whole entry): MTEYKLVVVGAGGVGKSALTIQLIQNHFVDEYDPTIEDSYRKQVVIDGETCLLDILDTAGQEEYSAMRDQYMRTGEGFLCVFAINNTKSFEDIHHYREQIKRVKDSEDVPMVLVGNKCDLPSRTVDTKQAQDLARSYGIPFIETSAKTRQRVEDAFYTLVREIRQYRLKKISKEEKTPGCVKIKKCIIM
GDP-bound HRAS wild-type protein, sequence (P01112 whole entry): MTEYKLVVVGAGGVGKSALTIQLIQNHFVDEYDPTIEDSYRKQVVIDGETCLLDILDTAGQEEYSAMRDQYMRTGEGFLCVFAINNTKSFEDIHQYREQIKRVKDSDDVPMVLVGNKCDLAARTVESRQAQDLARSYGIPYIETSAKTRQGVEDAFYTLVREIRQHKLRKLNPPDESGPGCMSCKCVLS

Structure (SMILES)	Kd ([1]; SPR, Single Cycle Kinetics)	NRAS/KRAS (ratio of KD value for NRAS to KD value for KRAS) [2]	HRAS/KRAS (ratio of KD value for HRAS to KD value for KRAS) [3]	Kd [1, 4]	NRAS/KRAS (ratio of KD value with respect to NRAS to KD value with respect to KRAS) [2]	HRAS/KRAS (ratio of KD value with respect to HRAS to KD value with respect to KRAS) [3]
CCO[C@@H]1C[C@H]2C(=O)NC3(CCC3)C(=O)N(C)[C@@H](C3CCCC3)C(=O)N(C)[C@H](C(=O)N(C)C)CC(=O)N(C)[C@@H](CC)C(=O)N[C@@H]([C@@H](C)CC)C(=O)N[C@@H](C)C(=O)N(C)[C@H]3C/C=C\CCN(C3=O)[C@@H](Cc3ccc(C(F)(F)F)cc3)C(=O)N(C)CC(=O)N[C@@H](CCc3cc(F)c(C(F)(F)F)c(F)c3)C(=O)N2C1 [PP1065]	450 pM	A (a compound having 10 or more and less than 20 is denoted as A)	B (a compound having 3 or more and less than 10 is denoted as B)	–	–	–
CC[C@H](C)[C@@H]1NC(=O)[C@H](CC(C)C)N(C)C(=O)C[C@@H](C(=O)N2CCOCC2)N(C)C(=O)[C@H](C2CCCC2)N(C)C(=O)C2(CCCC2)NC(=O)[C@@H]2CCCN2C(=O)[C@H](CCc2ccc(C(F)(F)F)c(Cl)c2)NC(=O)CN(C)C(=O)[C@H](Cc2ccc(C(F)(F)F)cc2)N(CC)C(=O)CN(C)C(=O)CN(C)C1=O [PP0023] ([NMeL]I[Sar][Sar][NEtPhe(4-CF3)][Sar][hPhe(3-Cl-4-CF3)]P[Ac5c][NMeGly(cPent)][NMeD]-Morpholide; lactam N-11)	–	B (a compound having 3 or more and less than 10 is denoted as B)	C (A compound having a KD ratio of 0.1 or more and less than 3 is denoted as C)	140 pM	–	–
CCCN1C(=O)[C@@H]2CCN2C(=O)[C@H](C)N(C)C(=O)[C@H]([C@@H](C)CC)NC(=O)[C@H](CC(C)C)N(C)C(=O)C[C@@H](C(=O)N2CCOCC2)N(C)C(=O)[C@H](C2CCCC2)N(C)C(=O)C2(CCCC2)NC(=O)[C@@H]2CCCN2C(=O)[C@H](CCc2ccc(C(F)(F)F)c(Cl)c2)NC(=O)CN(C)C(=O)[C@@H]1Cc1ccc(F)cc1 [PP0219] ([NMeL]I[NMeA][Aze][X9][Sar][hPhe(3-Cl-4-CF3)]P[Ac5c][NMeGly(cPent)][NMeD]-Morpholide; lactam N-11)	–	C (A compound having a KD ratio of 0.1 or more and less than 3 is denoted as C)	B (a compound having 3 or more and less than 10 is denoted as B)	130 pM	–	–
CCC[C@H]1C(=O)N[C@@H]([C@@H](C)CC)C(=O)N(C)CC(=O)N(C)[C@H]2C/C=C\CCN(C2=O)[C@@H](Cc2ccc(C)cc2)C(=O)N(C)CC(=O)N[C@@H](CCc2cc(F)c(C(F)(F)F)c(F)c2)C(=O)N2CC3(CC3)C[C@H]2C(=O)NC2(CC(C)(C)C2)C(=O)N(C)[C@@H](CC(C)(C)C)C(=O)N(C)[C@H](C(=O)N(C)C)CC(=O)N1C [PP2997]	120 pM	A (a compound having 10 or more and less than 20 is denoted as A)	B (a compound having 3 or more and less than 10 is denoted as B)	–	–	–
CCCN1C(=O)CN(C)C(=O)CNC(=O)[C@H]([C@@H](C)CC)NC(=O)[C@H](CC(C)C)N(C)C(=O)C[C@@H](C(=O)N(C)C)NC(=O)[C@H](C2CCCC2)N(C)C(=O)C2(CCC2)NC(=O)[C@@H]2C[C@@H](OCC)CN2C(=O)[C@H](CCc2ccc(C(F)(F)F)c(Cl)c2)NC(=O)CN(C)C(=O)[C@@H]1Cc1ccc(C(F)(F)F)cc1 [PP0366] ([NMeL]IG[Sar][NPrPhe(4-CF3)][Sar][hPhe(3-Cl-4-CF3)][Hyp](Et)[Ac4c][NMeGly(cPent)]D-NMe2; lactam N-11)	–	B (a compound having 3 or more and less than 10 is denoted as B)	B (a compound having 3 or more and less than 10 is denoted as B)	380 pM	–	–
C=CCOC[C@]1(C)NC(=O)[C@@H]2CCCN2C(=O)[C@H](CCc2cc(F)c(C(F)(F)F)c(F)c2)NC(=O)CN(C)C(=O)[C@H](Cc2ccc(C(F)(F)F)cc2)N(CCC)C(=O)[C@@H]2CCN2C(=O)CN(C)C(=O)[C@H]([C@@H](C)CC)NC(=O)[C@H](CC(C)C)N(C)C(=O)C[C@@H](C(=O)N2CCOCC2)N(C)C(=O)[C@H](C2CCCC2)N(C)C1=O [PP0799] ([NMeL]I[Sar][Aze][NPrPhe(4-CF3)][Sar][hPhe(3,5-F2-4-CF3)]P[αMeS](Allyl)[NMeGly(cPent)][NMeD]-Morpholide; lactam N-11)	–	–	–	1500 pM	C (A compound having a KD ratio of 0.1 or more and less than 3 is denoted as C)	B (a compound having 3 or more and less than 10 is denoted as B)
CCO[C@@H]1C[C@H]2C(=O)NC3(CCC3)C(=O)N(C)[C@@H](C3CCCC3)C(=O)N(C)[C@H](C(=O)N(C)C)CC(=O)N(C)[C@H]3CCCCCc4ccc(cc4)C[C@@H](C(=O)N(C)CC(=O)N[C@@H](CCc4cc(F)c(C(F)(F)F)c(F)c4)C(=O)N2C1)N1CC/C=C\C[C@@H](C1=O)N(C)C(=O)CN(C)C(=O)[C@H]([C@@H](C)CC)NC3=O [PP2261]	180 pM	A (a compound having 10 or more and less than 20 is denoted as A)	A (a compound having 10 or more and less than 20 is denoted as A)	–	–	–
CC[C@H](C)[C@@H]1NC(=O)[C@H](CC(C)C)N(C)C(=O)C[C@@H](C(=O)N2CCOCC2)N(C)C(=O)[C@H](C2CCCC2)N(C)C(=O)C2(CCCC2)NC(=O)[C@@H]2CCCN2C(=O)[C@H](CCc2cc(F)c(C(F)(F)F)c(F)c2)NC(=O)CN(C)C(=O)[C@H](Cc2ccc(C(F)(F)F)cc2)N2CCCC[C@@H](C2=O)N(C)C(=O)CN(CC)C1=O [PP0545]	–	–	–	240 pM	B (a compound having 3 or more and less than 10 is denoted as B)	B (a compound having 3 or more and less than 10 is denoted as B)
CCO[C@@H]1C[C@H]2C(=O)NC3(CCC3)C(=O)N(C)[C@@H](C(C)(C)C)C(=O)N(C)[C@H](C(=O)N3CCOCC3)CC(=O)N(C)[C@@H](CC(C)C)C(=O)N[C@@H]([C@@H](C)CC)C(=O)N(C)CC(=O)N(C)[C@H]3CCCCN(C3=O)[C@@H](Cc3ccc(C(F)(F)F)cc3)C(=O)N(C)CC(=O)N[C@@H](CCc3cc(F)c(C(F)(F)F)c(F)c3)C(=O)N2C1 [PP0814]	39 pM	B (a compound having 3 or more and less than 10 is denoted as B)	B (a compound having 3 or more and less than 10 is denoted as B)	–	–	–
CCCN1C(=O)[C@@H]2CCN2C(=O)[C@H](C)N(C)C(=O)[C@H]([C@@H](C)CC)NC(=O)[C@H](CC(C)C)N(C)C(=O)C[C@@H](C(=O)N2CCOCC2)N(C)C(=O)[C@H](C2CCCC2)N(C)C(=O)C(C)(C)NC(=O)[C@@H]2CCCN2C(=O)[C@H](CCc2ccc(C(F)(F)F)c(Cl)c2)NC(=O)CN(C)C(=O)[C@@H]1Cc1ccc(C(F)(F)F)cc1 [PP0225] ([NMeL]I[NMeA][Aze][NPrPhe(4-CF3)][Sar][hPhe(3-Cl-4-CF3)]P[Aib][NMeGly(cPent)][NMeD]-Morpholide; lactam N-11)	–	C (A compound having a KD ratio of 0.1 or more and less than 3 is denoted as C)	C (A compound having a KD ratio of 0.1 or more and less than 3 is denoted as C)	230 pM	–	–

Reference: patent US20240158446A1, “CYCLIC COMPOUND HAVING SELECTIVE INHIBITORY ACTION ON KRAS OVER HRAS AND NRAS” (CHUGAI SEIYAKU KABUSHIKI KAISHA, priority 2021, published 2024)
